Results taken from publication doi:10.1101/2024.12.04.625365v1 (biorxiv, 2024).

Assays:
recombinant hAQP4 (AQP4) = recombinant hAQP4 (AQP4) (Homo sapiens, UniProt P55087); assay: biochemical
[1] = target: T1, A2AR (human A2A receptor) (Homo sapiens, UniProt P29274); assay: displacement of [3H]ZM-241385 from crude Pichia membranes; format: binding
[2] = target: T1, A2AR (human A2A receptor); assay: intrinsic tryptophan fluorescence quenching; format: binding

T1 sequence (P29274 whole entry): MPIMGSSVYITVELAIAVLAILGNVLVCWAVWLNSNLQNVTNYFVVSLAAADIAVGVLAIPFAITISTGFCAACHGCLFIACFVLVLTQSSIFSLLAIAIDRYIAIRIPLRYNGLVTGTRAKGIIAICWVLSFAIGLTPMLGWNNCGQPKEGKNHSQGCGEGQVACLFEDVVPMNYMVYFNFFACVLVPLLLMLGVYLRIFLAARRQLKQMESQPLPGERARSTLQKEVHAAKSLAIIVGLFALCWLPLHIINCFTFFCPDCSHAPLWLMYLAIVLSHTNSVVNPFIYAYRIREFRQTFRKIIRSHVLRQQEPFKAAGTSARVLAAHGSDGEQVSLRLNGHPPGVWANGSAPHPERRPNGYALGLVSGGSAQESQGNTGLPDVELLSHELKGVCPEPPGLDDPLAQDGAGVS
Chain of recombinant hAQP4 (AQP4) (P55087 whole entry): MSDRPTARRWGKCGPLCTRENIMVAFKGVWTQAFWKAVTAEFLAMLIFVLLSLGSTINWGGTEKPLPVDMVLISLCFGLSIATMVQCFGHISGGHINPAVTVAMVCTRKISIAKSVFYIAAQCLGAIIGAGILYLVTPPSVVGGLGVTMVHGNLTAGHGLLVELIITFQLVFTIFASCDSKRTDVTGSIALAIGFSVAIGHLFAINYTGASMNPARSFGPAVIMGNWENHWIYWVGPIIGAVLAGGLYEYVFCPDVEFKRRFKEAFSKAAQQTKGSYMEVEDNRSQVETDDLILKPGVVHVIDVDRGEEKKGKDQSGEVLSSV

Kd (recombinant hAQP4 (AQP4)) [µM] | IC50 [1] [µM] | Kd [2] [µM] | SMILES
17 ± 3.1 | – | – | O=C(Nc1cc(C(F)(F)F)cc(C(F)(F)F)c1)c1cc(Cl)ccc1O [AER-270, N-(3,5-bis(trifluoromethyl)phenyl)-5-chloro-2-hydroxybenzamide]
– | 20 | 54 | O=C(Nc1nncs1)c1cccnc1 [TGN-020, N-1,3,4-thiadiazol-2-yl-3-pyridinecarboxamide]
